Measured values taken from US20240366581A1 (Hoffmann-La Roche Inc., priority 2022, published 2024).
Counter-ions that a name gives are not always drawn.

What was measured:
Format in all cases: biochemical
SIK1 = SIK1 (Homo sapiens (Human), UniProt P57059); experiment: SIK1 enzymatic activity assay, RapidFire mass spectrometry (CHK-peptide phosphorylation); conditions: 5 nM SIK1, CHK-peptide, ATP, 30 min pre-incubation, 45 min reaction, RapidFire MS; read-out: SIK1 RF IC50
Protocol: (§1) In the presence of SIK2 (resp. SIK1 or SIK3) and ATP the CHK-peptide ([…] with C-terminal arginine amide modification) were phosphorylated at one of the four feasible serine's. Only one phosphorylation is observed under the assay conditions. 60 nl of each compound dilution series (12 point; dilution factor 3, generally 30 μM to 170 pM) in DMSO were transferred by acoustic dispensing to the assay plate and 30 min pre-incubated (ambient temperature) after the addition of 5 μl SIK1 (5 nM) resp. 5 μl SIK2 (0.5 nM) or 7 μl SIK3 (1.5 nM) in assay-buffer (12.5 mM HEPES (pH 7.0), 10 mM magnesium acetate, 0.005% BSA). 10 μM CHK-peptide solution and 5 μl 100 μM ATP for SIK1 & SIK2 resp. 3 μl for SIK3 in assay-buffer were added and incubated ambient for 45 min. 40 μl 0.125% formic acid in water were added to quench the reaction. RapidFire (RF) Mass Spectrometry was utilized for data generation as described below. The multiple charged species (3-5 charges) for the phosphorylated and non-phosphorylated form measured by MRM (Multiple Reaction Monitoring; API5000 or 6500+) or EIC (Extracted Ion Current; QToF) were summed up and the ratio calculated (sum phosphorylated species/sum all species) for data evaluation. Normalization was performed by Genedata software based on the non-inhibition control DMSO and the commercially available SIK inhibitor @ 1 μM YKL-05-099 (CAS number 1936529-65-5). The results of the assay are expressed in half-maximal inhibitory concentrations (IC50s) and are summarized below in Table 1.
(§2) Samples were aspirated by vacuum for max. 600 ms and loaded to C4-cartridge (Agilent; #G9203A) for 3000 ms@1.5 ml/min with 0.1% formic acid in water. Afterwards samples were transferred to the API5000 (API6500+) or QToF mass spectrometer for 4000 ms@1.25 ml/min with 90% acetonitrile; 10% water; 0.007% TFA; 0.093 formic acid. The cartridge was reconditioned for additional 500 ms with 0.1% formic acid in water
(§3) All MS analyses using the following MS-setup in MRM mode: Electrospray positive; Ion Spray Voltage: 4000V; Temperature: 550° C.; Collision Gas: 5; Curtain Gas: 15; Gas1: 40; Gas 2: 42; EP: 10
(§4) All MS analyses using the following MS-setup in Mode MS: Dual AJS Electrospray positive; VCap: 3000V; Drying & Sheath gas: 340° C.@81/min; Nebulizer: 60 psig; Nozzle Voltage: 2000V; Fragmentor: 130V; Skimmer: 35V; Oct1 RF Vpp: 700V; Ref masses on@5spectra/s

SIK2 = SIK2 (Homo sapiens (Human), UniProt Q9H0K1); experiment: SIK2 enzymatic activity assay, RapidFire mass spectrometry (CHK-peptide phosphorylation); conditions: 0.5 nM SIK2, CHK-peptide, ATP, 30 min pre-incubation, 45 min reaction, RapidFire MS; read-out: SIK2 RF IC50
Sequence of SIK2 (Q9H0K1 whole entry): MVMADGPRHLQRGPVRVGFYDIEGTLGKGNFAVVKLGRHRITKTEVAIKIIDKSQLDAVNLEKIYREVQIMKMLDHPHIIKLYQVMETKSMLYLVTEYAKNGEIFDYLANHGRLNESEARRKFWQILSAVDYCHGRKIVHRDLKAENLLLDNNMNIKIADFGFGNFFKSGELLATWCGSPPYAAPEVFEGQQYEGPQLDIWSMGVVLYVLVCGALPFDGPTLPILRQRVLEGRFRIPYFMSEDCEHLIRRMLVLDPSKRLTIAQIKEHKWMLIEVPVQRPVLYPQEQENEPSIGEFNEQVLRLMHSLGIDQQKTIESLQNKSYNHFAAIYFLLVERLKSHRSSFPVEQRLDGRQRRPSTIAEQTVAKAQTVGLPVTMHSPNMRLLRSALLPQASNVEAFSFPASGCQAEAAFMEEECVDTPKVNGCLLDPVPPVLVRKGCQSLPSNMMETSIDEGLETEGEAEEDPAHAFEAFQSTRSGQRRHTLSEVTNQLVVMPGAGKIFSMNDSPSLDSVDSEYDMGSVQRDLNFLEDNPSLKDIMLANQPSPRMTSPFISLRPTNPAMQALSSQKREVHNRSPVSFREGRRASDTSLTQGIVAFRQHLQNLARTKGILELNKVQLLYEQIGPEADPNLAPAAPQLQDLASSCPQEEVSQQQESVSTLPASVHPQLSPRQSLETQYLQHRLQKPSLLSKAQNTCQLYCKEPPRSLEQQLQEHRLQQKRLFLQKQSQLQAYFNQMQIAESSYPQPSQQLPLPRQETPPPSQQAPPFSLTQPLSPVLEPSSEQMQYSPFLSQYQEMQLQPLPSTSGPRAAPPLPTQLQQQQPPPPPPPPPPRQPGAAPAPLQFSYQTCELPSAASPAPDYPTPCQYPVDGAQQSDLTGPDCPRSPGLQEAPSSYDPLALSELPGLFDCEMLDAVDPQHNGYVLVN
Protocol: as §1, §2, §3, §4

SIK3 = SIK3 (Homo sapiens (Human), UniProt Q9Y2K2); experiment: SIK3 enzymatic activity assay, RapidFire mass spectrometry (CHK-peptide phosphorylation); conditions: 1.5 nM SIK3, CHK-peptide, ATP, 30 min pre-incubation, 45 min reaction, RapidFire MS; read-out: SIK3 RF IC50
Sequence of SIK3 (Q9Y2K2 whole entry): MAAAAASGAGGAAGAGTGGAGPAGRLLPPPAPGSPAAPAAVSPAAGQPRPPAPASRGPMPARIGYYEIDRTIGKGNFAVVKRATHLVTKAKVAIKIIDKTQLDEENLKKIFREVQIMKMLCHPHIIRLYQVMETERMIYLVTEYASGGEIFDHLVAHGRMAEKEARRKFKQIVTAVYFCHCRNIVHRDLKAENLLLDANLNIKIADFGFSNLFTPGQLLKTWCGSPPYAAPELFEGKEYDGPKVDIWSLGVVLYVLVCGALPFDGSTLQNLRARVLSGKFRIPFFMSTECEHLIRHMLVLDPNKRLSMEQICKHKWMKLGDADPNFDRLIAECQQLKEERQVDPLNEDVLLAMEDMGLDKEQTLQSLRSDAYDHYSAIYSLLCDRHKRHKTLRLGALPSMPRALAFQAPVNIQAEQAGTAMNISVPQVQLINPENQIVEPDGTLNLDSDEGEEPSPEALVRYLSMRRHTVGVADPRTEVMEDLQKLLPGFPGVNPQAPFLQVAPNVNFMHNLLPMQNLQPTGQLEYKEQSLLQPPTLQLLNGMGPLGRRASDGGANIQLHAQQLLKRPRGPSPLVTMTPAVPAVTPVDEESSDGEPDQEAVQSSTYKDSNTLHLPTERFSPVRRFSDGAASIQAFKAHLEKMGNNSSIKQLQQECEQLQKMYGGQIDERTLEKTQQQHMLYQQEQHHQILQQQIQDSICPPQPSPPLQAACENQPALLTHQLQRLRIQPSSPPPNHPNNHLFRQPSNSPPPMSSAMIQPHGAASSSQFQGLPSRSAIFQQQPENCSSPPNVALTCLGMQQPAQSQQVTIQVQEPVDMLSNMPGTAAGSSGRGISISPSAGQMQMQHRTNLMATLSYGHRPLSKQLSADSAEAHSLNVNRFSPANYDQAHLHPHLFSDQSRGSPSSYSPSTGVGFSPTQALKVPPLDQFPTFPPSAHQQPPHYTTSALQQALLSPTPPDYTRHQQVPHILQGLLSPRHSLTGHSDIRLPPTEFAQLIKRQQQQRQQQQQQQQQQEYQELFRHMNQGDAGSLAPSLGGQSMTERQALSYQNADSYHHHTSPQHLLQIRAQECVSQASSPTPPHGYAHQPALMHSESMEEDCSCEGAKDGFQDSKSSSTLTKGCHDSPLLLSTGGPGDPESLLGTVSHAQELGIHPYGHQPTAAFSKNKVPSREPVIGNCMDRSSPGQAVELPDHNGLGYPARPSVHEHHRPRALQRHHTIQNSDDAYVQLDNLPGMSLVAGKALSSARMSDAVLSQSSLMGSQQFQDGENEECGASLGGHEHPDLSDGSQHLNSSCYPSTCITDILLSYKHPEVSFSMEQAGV
Protocol: as §1, §2, §3, §4

Sequence of SIK1 (P57059 whole entry): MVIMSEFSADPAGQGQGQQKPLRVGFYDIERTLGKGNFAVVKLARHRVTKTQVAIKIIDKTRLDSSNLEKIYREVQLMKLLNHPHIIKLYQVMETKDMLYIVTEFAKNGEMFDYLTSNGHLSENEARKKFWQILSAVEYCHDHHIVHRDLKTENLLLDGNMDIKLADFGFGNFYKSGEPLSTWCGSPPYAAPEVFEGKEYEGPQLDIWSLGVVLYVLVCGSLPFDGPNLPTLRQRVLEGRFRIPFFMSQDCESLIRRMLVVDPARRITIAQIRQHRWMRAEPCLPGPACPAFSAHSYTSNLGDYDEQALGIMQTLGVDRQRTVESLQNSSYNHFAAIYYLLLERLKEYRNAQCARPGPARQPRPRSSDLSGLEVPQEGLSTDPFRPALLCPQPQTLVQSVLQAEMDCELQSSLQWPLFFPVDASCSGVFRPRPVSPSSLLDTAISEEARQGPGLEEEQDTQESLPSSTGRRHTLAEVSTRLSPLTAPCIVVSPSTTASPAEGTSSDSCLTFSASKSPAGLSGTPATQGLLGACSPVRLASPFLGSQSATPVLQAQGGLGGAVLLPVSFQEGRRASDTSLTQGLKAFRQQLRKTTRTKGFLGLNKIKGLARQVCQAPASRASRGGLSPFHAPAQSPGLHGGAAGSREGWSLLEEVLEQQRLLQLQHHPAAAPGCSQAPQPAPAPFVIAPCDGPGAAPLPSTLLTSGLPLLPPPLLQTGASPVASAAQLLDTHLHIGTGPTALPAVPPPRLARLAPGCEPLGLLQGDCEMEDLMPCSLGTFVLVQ

SMILES | IC50 (SIK1) | IC50 (SIK2) | IC50 (SIK3)
COc1cc2ncn(-c3ccc(C(N)=O)c(NC(CCN)c4ccccc4)n3)c2cc1OC (stereo not shown) [Example 5, 2-[(3-amino-1-phenyl-propyl)amino]-6-(5,6-dimethoxybenzimidazol-1-yl)pyridine-3-carboxamide hydrochloride] | 0.0074 µM | 0.0095 µM | 0.331 µM
Cc1ccc(Nc2ccc3ncn(-c4ccc(C(N)=O)c(OC(C)C(F)F)n4)c3c2)nn1 (stereo not shown) [Example 24] | 0.605 µM | 0.206 µM | 0.0957 µM
COc1cc2ncn(-c3ccc(C(N)=O)c(NCCc4cccc(Cl)c4)n3)c2cc1OC [Example 9, 2-[2-(3-chlorophenyl)ethylamino]-6-(5,6-dimethoxybenzimidazol-1-yl)pyridine-3-carboxamide] | 0.0062 µM | 0.0065 µM | 0.146 µM
CC(=O)c1ccc(-n2cnc3cc4c(cc32)NCC4)nc1-n1nc(C#N)cc1C [Example 30, 1-[3-acetyl-6-(6,7-dihydro-5H-pyrrolo[3,2-f]benzimidazol-3-yl)-2-pyridyl]-5-methyl-pyrazole-3-carbonitrile] | 0.547 µM | 0.816 µM | 
Cc1cc(C#N)nn1-c1nc(-n2cnc3cc(OCCN4CCOCC4)ccc32)ccc1C(N)=O [Example 22, 2-(3-Cyano-5-methyl-pyrazol-1-yl)-6-[5-(2-morpholinoethoxy)benzimidazol-1-yl]pyridine-3-carboxamide] | 19.8 µM | 7.41 µM | 12.2 µM
COC(=O)c1ccc(-n2cnc3cc(OC)c(OC)cc32)nc1N1CCCCC1=O [Example 14, Methyl 6-(5,6-dimethoxy-1H-benzo[d]imidazol-1-yl)-2-(2-oxopiperidin-1-yl)nicotinate] | 7.48 µM | 5.15 µM | 18 µM
Cc1cc(C#N)nn1-c1nc(-n2cnc3cc(N[C@H]4CNC[C@H]4F)ccc32)ccc1C(N)=O [Example 25, 2-(3-Cyano-5-methyl-pyrazol-1-yl)-6-[5-[[(3S,4R)-4-fluoropyrrolidin-3-yl]amino]benzimidazol-1-yl]pyridine-3-carboxamide; formic acid] | 0.914 µM | 0.171 µM | 0.257 µM
COc1cc2ncn(-c3ccc(C(=O)O)c(N4CCCCC4)n3)c2cc1OC [Example 16, 6-(5,6-Dimethoxy-1H-benzo[d]imidazol-1-yl)-2-(piperidin-1-yl)nicotinic acid] | 0.26 µM | 0.241 µM | 1.67 µM
COc1cc2ncn(-c3ccc(C(N)=O)c(-c4cccc(C#N)c4)n3)c2cc1OC [Example 21, 2-(3-Cyanophenyl)-6-(5,6-dimethoxybenzimidazol-1-yl)pyridine-3-carboxamide] | 0.659 µM | 0.878 µM | 3.5 µM
COc1cc2ncn(-c3ccc(C(N)=O)c(NC(CN)c4cccc(Cl)c4)n3)c2cc1OC (stereo not shown) [Example 10, 2-[[2-amino-1-(3-chlorophenyl)ethyl]amino]-6-(5,6-dimethoxybenzimidazol-1-yl)pyridine-3-carboxamide hydrochloride] | 0.0017 µM | 0.0012 µM | 0.0449 µM
CC(=O)c1ccc(-n2cnc3cc4c(cc32)CCN4)nc1-n1nc(C#N)cc1C [Example 31, 1-[3-acetyl-6-(6,7-dihydro-5H-pyrrolo[2,3-f]benzimidazol-1-yl)-2-pyridyl]-5-methyl-pyrazole-3-carbonitrile] | 0.013 µM | 0.0091 µM | 1.23 µM
CC(=O)c1ccc(-n2cnc3cc(Nc4cccn(C)c4=O)ccc32)nc1-n1nc(C#N)cc1C [Example 37, 1-[3-acetyl-6-[5-[(2-keto-1-methyl-3-pyridyl)amino]benzimidazol-1-yl]-2-pyridyl]-5-methyl-pyrazole-3-carbonitrile] | > 10 µM | 0.502 µM | 0.208 µM
Cc1ccc(Nc2ccc3c(c2)ncn3-c2ccc(C(=O)C(F)(F)F)c(-n3nc(C#N)cc3C)n2)nn1 [Example 34, 5-methyl-1-[6-[5-[(6-methylpyridazin-3-yl)amino]benzimidazol-1-yl]-3-(2,2,2-trifluoroacetyl)-2-pyridyl]pyrazole-3-carbonitrile] | 2.33 µM | 0.0414 µM | 0.0317 µM
COc1cc2ncn(-c3ccc(C(=O)NCC(F)(F)F)c(-c4cccc(C#N)c4)n3)c2cc1OC [Example 20, 2-(3-Cyanophenyl)-6-(5,6-dimethoxybenzimidazol-1-yl)-N-(2,2,2-trifluoroethyl)pyridine-3-carboxamide] | 12.1 µM | 6.24 µM | > 30 µM
CC(=O)c1ccc(-n2cnc3cc(Nc4ccc(C5CCCN5)nn4)ccc32)nc1-n1nc(C#N)cc1C (stereo not shown) [Example 39, 1-[3-acetyl-6-[5-[(6-pyrrolidin-2-ylpyridazin-3-yl)amino]benzimidazol-1-yl]-2-pyridyl]-5-methyl-pyrazole-3-carbonitrile] | 6.58 µM | 0.0437 µM | 0.728 µM
CNC(=O)c1ccc(-n2cnc3cc(OC)c(OC)cc32)nc1-c1cccc(C#N)c1 [Example 18, 2-(3-Cyanophenyl)-6-(5,6-dimethoxybenzimidazol-1-yl)-N-methyl-pyridine-3-carboxamide; Formic Acid] | 9.47 µM | 5.77 µM | 13.5 µM
COC(=O)c1ccc(-n2cnc3cc(OC)c(OC)cc32)nc1N1CCCC1=O [Example 15, Methyl 6-(5,6-dimethoxy-1H-benzo[d]imidazol-1-yl)-2-(2-oxopyrrolidin-1-yl)nicotinate] | 1.57 µM | 0.828 µM | 4 µM
COc1nn(C)cc1-c1ccc2c(c1)ncn2-c1ccc(C(C)=O)c(-n2nc(C#N)cc2C)n1 [Example 38, 1-[3-acetyl-6-[5-(3-methoxy-1-methyl-pyrazol-4-yl)benzimidazol-1-yl]-2-pyridyl]-5-methyl-pyrazole-3-carbonitrile] | 3.49 µM | 0.754 µM | 1.79 µM
CCNC(=O)c1ccc(-n2cnc3cc(OC)c(OC)cc32)nc1-c1cccc(C#N)c1 [Example 17, 2-(3-cyanophenyl)-6-(5,6-dimethoxybenzimidazol-1-yl)-N-ethyl-pyridine-3-carboxamide] | 14.9 µM | 5.07 µM | 21.6 µM
COc1cc(-n2cnc3cc(Nc4ccc(C)nn4)ccc32)nc(OC)c1C(C)=O [Example 29, 1-[2,4-dimethoxy-6-[5-[(6-methylpyridazin-3-yl)amino]benzimidazol-1-yl]-3-pyridyl]ethanone] | 1.46 µM | 0.0867 µM | 
Cc1ccc(Nc2ccc3c(c2)ncn3-c2ccc(C(N)=O)c(OC(C)C(F)F)n2)nn1 (stereo not shown) [Example 23, 2-(2,2-Difluoro-1-methyl-ethoxy)-6-[5-[(6-methylpyridazin-3-yl)amino]benzimidazol-1-yl]pyridine-3-carboxamide] | 0.361 µM | 0.0152 µM | 0.0049 µM
Cc1ccc(Nc2ccc3c(c2)ncn3-c2ccc(C=O)c(-n3nc(C#N)cc3C)n2)nn1 [Example 36, 1-[3-formyl-6-[5-[(6-methylpyridazin-3-yl)amino]benzimidazol-1-yl]-2-pyridyl]-5-methyl-pyrazole-3-carbonitrile] | 0.274 µM | 0.0052 µM | 0.0007 µM
COc1cc2ncn(-c3ccc(C(N)=O)c(NC(CCN)c4ccsc4)n3)c2cc1OC (stereo not shown) [Example 4, 2-[[3-amino-1-(3-thienyl)propyl]amino]-6-(5,6-dimethoxybenzimidazol-1-yl)pyridine-3-carboxamide hydrochloride] | 0.0034 µM | 0.0033 µM | 0.115 µM
COc1cc2ncn(-c3ccc(C(N)=O)c(NC(CCN)c4cccc(Cl)c4)n3)c2cc1OC (stereo not shown) [Example 11, 2-[[3-amino-1-(3-chlorophenyl)propyl]amino]-6-(5,6-dimethoxybenzimidazol-1-yl)pyridine-3-carboxamide hydrochloride] | 0.0063 µM | 0.0158 µM | 0.206 µM
